This note sets out measurements from patent US10308649B2, “Compounds and methods to suppress autoimmune response” (Oregon State University, priority 2014, dated 2019).

Molecules are shown by their SMILES.

One may read the IC50 as the concentration needed to halve the response being measured.

The target in data set [1] is T1, AhR (Mus musculus, UniProt P30561).
T1 sequence (P30561 10-848): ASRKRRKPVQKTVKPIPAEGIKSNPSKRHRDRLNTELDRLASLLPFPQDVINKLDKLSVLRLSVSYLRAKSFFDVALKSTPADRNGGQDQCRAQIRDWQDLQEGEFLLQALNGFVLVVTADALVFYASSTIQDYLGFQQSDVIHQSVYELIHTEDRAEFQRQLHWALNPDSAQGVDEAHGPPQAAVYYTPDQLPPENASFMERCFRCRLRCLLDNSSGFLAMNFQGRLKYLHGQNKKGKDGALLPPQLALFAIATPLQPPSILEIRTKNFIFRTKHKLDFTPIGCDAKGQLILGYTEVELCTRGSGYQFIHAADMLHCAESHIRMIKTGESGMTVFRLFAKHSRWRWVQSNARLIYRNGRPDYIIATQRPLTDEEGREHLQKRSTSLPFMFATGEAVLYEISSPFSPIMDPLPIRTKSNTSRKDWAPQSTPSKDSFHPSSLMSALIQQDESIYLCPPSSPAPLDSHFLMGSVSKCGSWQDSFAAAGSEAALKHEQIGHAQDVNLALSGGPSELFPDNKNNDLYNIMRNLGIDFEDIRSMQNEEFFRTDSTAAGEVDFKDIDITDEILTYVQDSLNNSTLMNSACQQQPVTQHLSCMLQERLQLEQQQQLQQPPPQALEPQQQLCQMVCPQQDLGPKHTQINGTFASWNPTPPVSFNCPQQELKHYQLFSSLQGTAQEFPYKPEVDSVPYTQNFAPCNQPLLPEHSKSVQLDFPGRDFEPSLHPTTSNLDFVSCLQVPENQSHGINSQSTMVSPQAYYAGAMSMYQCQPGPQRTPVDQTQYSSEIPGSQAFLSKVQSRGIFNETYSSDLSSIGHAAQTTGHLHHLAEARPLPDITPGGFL
In words: Competitive inhibition of [3H] 3-MC binding to AhR. Conditions: for fold lower / less active than TCDD: relative to IC50 of TCDD. The text has this: 3-MC binding to AhR. […] 3-methylcholanthrene (3-MC) to AhR.

For data set [2], the system named is AhR. Put plainly: XRE-luciferase reporter gene in Hepa-1 cells expressing endogenous AhR. The data set is classed as cell-based, mouse. The note with it: for fold activation of AhR (reporter gene activity): 10 nM, 12 hours; for XRE-luciferase reporter activity, in words: 16 hours after treating. The protocol:
FIGS. 9a-9f illustrate activity studies for 10-Cl-BBQ, 11-Cl-BBQ, and combinations thereof. Hepa-1 cells expressing endogenous AhR were transfected with a xenobiotic responsive element (XRE)-luciferase reporter gene. […] The activity was measured 16 hours after treating the cells with the various concentrations.
The reporter gene activity was measured after 12 hours of treatment with TCDD at a concentration of 1 nM or with the indicated concentrations of AHRL1.
Hepa-1 cells expressing endogenous AhR were transfected with a XRE-luciferase reporter gene. […] The mean luciferase activity is shown with SEM.
In general terms: Reporter assays use an easily measured gene product as a stand-in for the process of interest.

The next data set has as its system donor CD4+ T cells. In words: Acute graft versus host model: Treg phenotype of alloactivated donor CD4+ T cells. The data set is classed as in vivo, mouse. Conditions: 10 mg/kg day 0 and day 1, day 2, p-value=0.05. The protocol: FIGS. 14a-14i show AHRL1 induces an AhR-dependent Treg phenotype by a mechanism that is mediated by the AhR in donor CD4+ T cells. The AhR-induced Tregs were identified as the CD4+CD25+CTLA-4+CD62L^low population of T cells. To determine if AHRL1 induced changes in donor CD4+ T cells, AHRL1 was compared with TCDD and the vehicle. On day 0, B6D2F1 host mice in groups of 5 were injected with CFSE-labeled C57BL/6 (H-2^b/b) T cells and given 15 mg/kg of AHRL1, 15 μg/kg of TCDD, or vehicle by i.p. injection. At 24 hours, an additional dose of 7 mg/kg of AHRL1 or vehicle was given. Mice that were treated with TCDD at the time of donor cell transfer were used as positive controls. Splenocytes were isolated on day 2 for phenotypic analysis of the alloresponsive (CFSE-diluted) donor CD4+ T cells. Splenocytes were harvested from the host mice and the CD4+ T cells were identified by flow cytometry.
On day 0, B6D2F1 host mice in groups of 5 were injected with donor T cells obtained from AhR^+/+ or AhR-deficient (AhR^−/−) C57BL/6 mice. Host mice were treated with 2 mg/kg of AHRL1 or vehicle immediately following donor cell transfer and again at 24 hours. […] Thus, the AhR in the CD4+ T cell is the primary target driving the AhR-Treg phenotype.
On day 0, B6D2F1 host mice in groups of 3-5 were injected with C57BL/6 T cells. Mice were immediately treated with 0 mg/kg, 0.4 mg/kg, 2 mg/kg, or 10 mg/kg of AHRL1 and again on day 1. On day 2, expression of markers associated with the AhR-Treg phenotype increased as the dose of AHRL1 increased. Further, dosing generally correlated with degree of activation of AhR as reflected by CYP1A1, CYP1B1, and AHRR expression in lymph nodes from the same mice. The asterisk (*) indicates a p-value of 0.05 relative to vehicle treatment.
FIGS. 16c and 16d show expression of phenotypic markers, CD25+ICOS+CD62L^low and CD25+CTLA-4+, associated with AhR-Tregs in mice treated with AHRL1. Host mice were treated with 10 mg/kg of AHRL1, 11-Cl-BBQ analog, or vehicle on day 0 and day 1 following donor cell transfer. On day 2, the alloactivated CD4+ donor T cells were identified based on CFSE dilution. The percentage of donor cells in each group expressing the Treg markers were derived from flow histograms. The data represents mean±SEM of 5 mice per treatment. […] Analog 1 is statistically different from AHRL1 and analog 4 (p-value=0.05). […], analog 1, and analog 4 are shown to be AhR ligands that are capable of inducing Tregs in vivo. Accordingly, analogs 1 and 4 are expected to have a similar therapeutic effect in a subject as AHRL1 by suppressing an autoimmune response. Additionally, analog 6, analog 7, and other analogs of 11-Cl-BBQ, that are found to be active AhR ligands using the disclosed screening method, are expected to induce Tregs and suppress CTL to provide treatment and/or prevention of immune-mediated diseases.

Data set [3] can be described thus: Serum pharmacokinetics after i.p. injection. The note with it: mouse. The protocol: FIGS. 13a and 13b show the pharmacokinetics of AHRL1. To determine the half-life of AHRL1, mice were treated with a single intraperitoneal injection of the chemical, and serum concentrations were measured over time by mass spectrometry. In FIG. 13a, C57BL/6 mice were given 10 mg/kg AHRL1 by i.p. injection. Blood was collected at the indicated times by cardiac puncture. The blood serum was processed to remove protein and the samples were analyzed by QTRAP 4000 LC/MS/MS. The blood serum concentration of AHRL1 was determined from a standard curve based on known concentrations of AHRL1.
Based on the model, the serum half-life of AHRL1 is approximately 2 hours. Additional kinetic parameters include the absorption rate constant (ka) which was 1.2 h^−1. […] The area under the concentration-time curve (AUC0-∞) was 102.5 mg/L*h.

With `O=c1c2ccc3ccc4cccc5cc(c2c3c45)c2nc3ccc(Cl)cc3n12` [analog 3, 11-Chloro-8H-benzimidazo[2,1-a]phenanthro[3,4,5-defg]isoquinolin-8-one], on AhR [1], the IC50 turned out to be 77.3 nM and the “fold lower / less active than TCDD” value was 10 fold. Further, the “fold activation of AhR (reporter gene activity)” value (“fold activation of AhR” for short) with AhR [2] stood at 2 fold.

`O=c1c2cccc3cccc(c32)c2nc3ccccc3n12` [analog 1, 7H-Benzimidazo[2,1-a]benzo[de]isoquinolin-7-one] came in with an IC50 at AhR [1] of 13.7 nM. Further, in the data set on donor CD4+ T cells, the “expression of CD25+CTLA-4+ on alloactivated CD4+ donor T cells” value is “statistically different from vehicle” and the “expression of CD25+ICOS+CD62Llow on alloactivated CD4+ donor T cells” value is recorded as “statistically different from vehicle”. In the data set with AhR [2], the “fold activation of AhR” value was 13 fold.

With `NN1C(=O)c2ccc3c(=O)n4c5ccc(Cl)cc5nc4c4ccc(c2c34)C1=O` [analog 2, 2-Amino-10-chlorobenzimidazo[2,1-b]benzo[lmn][3,8]phenanthroline-1,3,6(2H)-trione], the “IC50, competitive inhibition of [3H] 3-MC binding to AhR” value on AhR [1] is “inactive”. For the same compound, in the data set with AhR [2], the “fold activation of AhR” value is given as “did not induce reporter activity”.

On AhR [1], `O=c1c2ccc(Cl)c3cccc(c32)c2nc3cc(Cl)ccc3n12` [analog 4, 4,11-Dichloro-7H-benzimidazo[2,1-a]benzo[de]isoquinolin-7-one] had an IC50 of 5.2 nM. In the data set on donor CD4+ T cells, the “expression of CD25+CTLA-4+ on alloactivated CD4+ donor T cells” value is “statistically different from vehicle” and the “expression of CD25+ICOS+CD62Llow on alloactivated CD4+ donor T cells” value is “statistically different from vehicle”. Also, the “fold activation of AhR” value in the data set on AhR [2] stood at 19 fold.

As for `O=c1c2cccc3cccc(c32)c2nc3ccc(Cl)cc3n12` [10-Cl-BBQ, 10-chloro-7H-benzimidazo[2,1-a]benzo[de]Iso-quinolin-7-one], in data set [3], the “in vivo serum half-life” value is “approximately two”. For the same compound, the “XRE-luciferase reporter activity, in words” value in the data set with AhR [2] is listed as “activate AhR”.

Consider `O=C(O)c1ccc2c3c1cccc3c(=O)n1c3ccccc3nc21` [analog 5, 7-Oxo-7H-benzimidazo[2,1-a]benzo[de]isoquinoline-3-carboxylic acid], for which, at AhR [1], the IC50 was 45200 nM and the “fold lower / less active than TCDD” value is reported as 1000 fold. In the data set with AhR [2], the “fold activation of AhR” value is recorded as “did not induce reporter activity”.

As to `O=c1c2cccc3cccc(c32)c2nc3cc(Cl)ccc3n12` [11-Cl-BBQ, 11-chloro-7H-benzimidazo[2,1-a]benzo[de]Iso-quinolin-7-one], the “in vivo serum half-life” value in data set [3] is “approximately two”. Further, the “XRE-luciferase reporter activity, in words” value with AhR [2] is “increased AhR reporter activity as compared to 10-Cl-BBQ alone”.
